From article PMC12040169 (PLOS Biology, 2025)

assay: in vitro; conditions: human, hela cells

| SMILES | viability at 28.5 h, 10 µM |
| --- | --- |
| CNC(=O)Oc1ccc(C)cc1C(=O)N(C)C [CBK012319] | 111% |

same assay, conditions: human, hela cells, % viability

| SMILES | viability at 28.5 h, 10 µM |
| --- | --- |
| CNc1cc(NS(=O)(=O)c2ccc(N)cc2)nc(NC)n1 [CBK011865C] | 96.1% |
| COc1ccc(C(O)CNC(C)C)c2c(C)c(C)oc12 (centres unmarked) [CBK011885C] | 97% |
| O=C(NC1CCCCC1)NS(=O)(=O)c1ccc(CCNC(=O)c2cccs2)cc1 [CBK011888] | 86.3% |
| NCC(=O)N(CCC1CCCC1)c1cccc2ccccc12 [CBK011922C] | 88.2% |
| COc1ccccc1C(C)CN(C)C (centres unmarked) [CBK011948C] | 91.2% |
| CCCCOc1ccc(C(=O)OC(Cc2cccc3ccccc23)CN(CC)CC)cc1 (centres unmarked) [CBK011965C] | 87.7% |
| Cc1cn(C2CC(O)C(CO)O2)c(=O)[nH]c1=O (centres unmarked) [CBK011998] | 93.3% |
| O=C(O)CCCCC1SCC2NC(=O)NC21 (centres unmarked) [CBK012026G] | 105% |
| Cc1cc(N)cc(C)c1O [CBK012062C] | 89.9% |
| CC(=O)c1c[nH]c(=O)[nH]c1=O [CBK012093] | 115% |
| CCN(CC)C(=O)c1cccc(OC)c1 [CBK012105] | 101% |
| CC(C)(CN)c1ccccc1 [CBK012106C] | 81.6% |
| O=C(O)CCN1CCCCC1 [CBK012168C] | 103% |
| COc1ccc(CC(=O)c2ccc(O)cc2O)cc1 [CBK012203] | 88.2% |
| CN(C)CCN(Cc1ccccc1)c1ccccc1 [CBK012223C] | 114% |
| CS(=O)(=O)NC1CCCCC1 [CBK012234] | 89.3% |
| CC(=O)Nc1ccc(/C=N/c2ccccc2)cc1 [CBK012258] | 96.4% |
| OCC1OC(n2cnc3c(S)ncnc32)C(O)C1O (centres unmarked) [CBK012260] | 64.5% |
| Nc1nc(N2CCCCC2)nc2ccccc12 [CBK012270] | 114% |
| Cc1cccc(C(N)=O)c1O [CBK012294] | 112% |
| Cc1cc2nc3c(nc2cc1C)CCNCC3 [CBK012302] | 91.1% |
| CCCCC(c1ccc(Cl)cc1)N(CCN(C)C)c1ccccn1 (centres unmarked) [CBK012315F] | 86.3% |
| CCOC(=O)NC(=O)c1ccccc1 [CBK012359] | 108% |
| CC(=O)Oc1cc2c(c(OC(C)=O)n1)C(C)NC2=O (centres unmarked) [CBK012390] | 94.9% |

| SMILES | viability at 28.5 h, 10 µM |
| --- | --- |
| O=C(O)CC1CCC2(CC1)Cc1ccccc1C2 [CBK012397] | 89.8% |
| CC(C(=O)N(C)C)n1cccc1 (centres unmarked) [CBK012421] | 86.4% |
| COC(=O)c1c(C)c(C(C)=O)n(C)c1C [CBK012459] | 117% |
| COc1ccc(CCNCC2OCCCc3cc(OC)c(OC)cc32)cc1OC (centres unmarked) [CBK012466C] | 94% |
| CN1CCCC(C(O)c2ccccc2)C1 (centres unmarked) [CBK012472] | 96.9% |
| CN(C)CCOC1OC(CO)C(O)C(O)C1O (centres unmarked) [CBK012476C] | 94.4% |
| Cc1[nH]c2c(C(=O)O)cccc2c1-c1ccccc1 [CBK012486] | 103% |
| O=C(NCCNCc1ccccc1)c1ccccc1 [CBK012505] | 119% |
| CCC1=C(c2ccc(Cl)cc2)CCC(C(=O)NCCCN(C)C)C1C (centres unmarked) [CBK012578] | 74.1% |
| CN(C(=O)Cc1ccccc1)c1ccccc1 [CBK012581] | 103% |
| CN(C)CCn1c(=O)c2c(ncn2C)n(C)c1=O [CBK012590] | 115% |
| CC(=O)NCC1CN(c2ccc3c(c2)CCN3C(=O)OC(C)(C)C)C(=O)O1 (centres unmarked) [CBK012600] | 99.7% |
| Cn1c(-c2cc(=O)c(C(=O)O)c[nH]2)n[nH]c1=O [CBK012603] | 79.6% |
| N#C/N=C(/Nc1cccnc1)Oc1ccccc1 [CBK012612] | 87.3% |
| O=C(c1ccccc1Nc1cccc(C(F)(F)F)c1)N1CCN(c2ccccn2)CC1 [CBK012634] | 94.4% |
| Clc1ccc(-n2ccnc2)cc1 [CBK012658] | 107% |
| COc1ccc(C2N(N3C(=O)CC(=O)NC3=O)C(=O)CS2(=O)=O)cc1OC (centres unmarked) [CBK012702] | 94.8% |
| Cc1cc(N2CCOCC2)nc(N)n1 [CBK012710] | 99.1% |
| O=c1cc(O)cc(CCc2ccccc2)o1 [CBK012714] | 117% |
| O=C(NCO)c1ccccc1O [CBK012717] | 93.9% |
| CN(c1cncc(Cl)n1)C1CCN(Cc2ccccc2)CC1 [CBK012767F] | 77.7% |
| CCC1(CCc2ccccc2)CC(O)=CC(=O)O1 (centres unmarked) [CBK012790] | 98.5% |
| CCN(Cc1ccccc1)C(=O)Nc1ccccc1 [CBK012816] | 94.9% |
| O=C(c1ccccc1)N1CCCCC1 [CBK012821] | 99.1% |

| SMILES | viability at 28.5 h, 10 µM |
| --- | --- |
| Cc1nnsc1[S+]([O-])c1ccc(Br)cc1 (centres unmarked) [CBK012927] | 96.1% |
| Cn1c(C(O)c2ccccc2)n[nH]c1=S (centres unmarked) [CBK012984] | 117% |
| O=C(O)CCSc1cccc(C(F)(F)F)c1 [CBK012986] | 111% |
| COc1ccc(CNCCN)cc1 [CBK013010] | 98.2% |
| CC(C)CC1(C(CN2C(=O)c3ccccc3C2=O)C(=O)NO)CCN(CCc2ccccc2)C1=O (centres unmarked) [CBK013029] | 103% |
| CC(=O)NC[C@H]1CN(c2ccc(C3CNC3)c(F)c2)C(=O)O1 [CBK013035] | 82.8% |
| O=C(O)c1ccc(C(=O)Nc2ccc3c(=O)n4c(nc3c2)/C(=C/c2ccccc2)CC4)cc1 [CBK013048] | 82.3% |
| COc1ccccc1OCCNC1CCc2cc(Cl)ccc2C1 (centres unmarked) [CBK013067C] | 93.2% |
| CCCCNC(=O)CCCN(CC)CCC1=CC2(CCCC2)c2ccccc21 [CBK013232] | 91.7% |
| O=C(COc1ccc(Cl)cc1)NCCc1ccc(S(=O)(=O)NC(=O)NC2CCCCC2)cc1 [CBK013261] | 92.4% |
| NC1CCN(C(=O)c2cc3ccccc3[nH]2)CC1 [CBK013294] | 89.7% |
| CC(C)N(CC(=O)N(c1ccccc1)c1ccccc1)C(C)C [CBK013303C] | 96.6% |
| c1ccc2c(c1)/C(=N/OCCCN1CCCCC1)CC21CCCCC1 [CBK013321] | 108% |
| CN(C)CCCO/N=C1\CC2(CCCC2)c2ccccc21 [CBK013331] | 80.7% |
| Cc1cc(O)ccc1C(CC(=O)O)c1ccccc1 (centres unmarked) [CBK013350] | 100% |
| COC1=CC2CCNC(CCCCC3NCCc4cc(OC)c(OC)cc43)C2C=C1OC (centres unmarked) [CBK013354] | 87% |
| Cc1cc(C(C)(C)C)cc(C)c1S(=O)(=O)NCCSCCN [CBK013357] | 97.8% |
| Cc1cc(C)c(S(=O)(=O)NCCSCCC(=O)O)c(C)c1 [CBK013358] | 95.7% |
| c1ccc(Nc2cncc(N3CCNCC3)n2)cc1 [CBK013389] | 100% |
| FC(F)(F)c1cnc(N2CCNCC2)c(Cl)c1 [CBK013400] | 92.9% |
| CC(C)(C)OC(=O)N1CCN(c2nccnc2Cl)CC1 [CBK013554] | 102% |
| COc1c(C(=O)O)cc(C)c2c1CCC2C (centres unmarked) [CBK013617] | 101% |

same assay, conditions: human, hela cells, % viability, bulk resorufin, single well

| SMILES | viability at 28.5 h, 10 µM |
| --- | --- |
| CNC(Cc1ccccc1)c1ccccc1OC (centres unmarked) [CBK011943C] | 88.6% |
| C1=C(c2ccccc2)CCNC1 [CBK012268C] | 104% |
| Cc1ccc(Cl)cc1N1CCNCC1 [CBK013402] | 94.6% |
